Reference: patent publication US10208019B2, “GLP-1 receptor agonists and uses thereof” (Pfizer Inc., priority 2016, dated 2019)
pEC50: −log10 of the molar value. Where two headings read alike, the source gives them in different places.

Columns and labels:
human GLP-1R [1] = target: human GLP-1R (Homo sapiens (Human), UniProt P43220, L260F); assay: CHO GLP-1R Clone C6—Assay 2: HTRF cAMP cell-based functional agonist assay (low GLP-1R density); settings: for pEC50: CHO GLP-1R Clone C6, cAMP HTRF, geometric mean; for Emax: read-out: Assay 2 Emax (%)
human GLP-1R [2] = target: human GLP-1R (Homo sapiens, UniProt P43220, G168S); assay: CHO GLP-1R Clone H6—Assay 1: HTRF cAMP cell-based functional agonist assay (high GLP-1R density); settings: for pEC50: read-out: Assay 1 EC50; for Emax: read-out: Assay 1 Emax (%), CHO GLP-1R Clone H6
[3] = CHO GLP-1R Clone C6, relative to saturating concentration of full agonist GLP-1 (1 μM), arithmetic mean
[4] = CHO GLP-1R Clone H6, cAMP HTRF, geometric mean
[5] = relative to saturating concentration of full agonist GLP-1 (1 μM), arithmetic mean

Sequence of human GLP-1R (Homo sapiens, UniProt P43220, G168S) (P43220 24-463 G168S limits assumed): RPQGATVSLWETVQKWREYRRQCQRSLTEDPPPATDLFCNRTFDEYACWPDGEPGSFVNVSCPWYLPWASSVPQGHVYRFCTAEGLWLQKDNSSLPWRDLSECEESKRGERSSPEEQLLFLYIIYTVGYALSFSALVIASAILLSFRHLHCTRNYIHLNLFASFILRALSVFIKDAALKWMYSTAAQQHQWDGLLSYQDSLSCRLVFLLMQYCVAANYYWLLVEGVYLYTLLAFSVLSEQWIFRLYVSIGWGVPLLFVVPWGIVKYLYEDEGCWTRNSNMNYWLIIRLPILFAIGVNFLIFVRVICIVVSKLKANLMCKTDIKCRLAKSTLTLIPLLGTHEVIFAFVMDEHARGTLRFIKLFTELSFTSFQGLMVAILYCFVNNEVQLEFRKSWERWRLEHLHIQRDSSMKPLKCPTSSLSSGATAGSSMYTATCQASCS
Sequence of human GLP-1R (Homo sapiens (Human), UniProt P43220, L260F) (P43220 24-463 L260F): as the sequence (P43220 24-463 G168S limits assumed) above, with S145G, L237F counted along it

| pEC50 (human GLP-1R [1]) | Emax (human GLP-1R [1]; [3]) [%] | pEC50 (human GLP-1R [2]; [4]) | Emax (human GLP-1R [2]; [5]) [%] | Assay 2 Emax (%) (human GLP-1R [1]; [3]) | EC50 (human GLP-1R [2]; Assay 1 EC50 (nM), CHO GLP-1R Clone H6, cAMP HTRF, geometric mean) [nM] | Assay 1 Emax (%) (human GLP-1R [2]; CHO GLP-1R Clone H6, relative to saturating concentration of full agonist GLP-1 (1 μM), arithmetic mean) | SMILES |
| --- | --- | --- | --- | --- | --- | --- | --- |
| 5.92 | 94 | 7.62 | 76 |  |  |  | COCCn1c(CN2CCC(c3cccc(OCc4ccc(Cl)cc4F)n3)CC2)nc2ccc(C(=O)O)nc21 [Example 2A-17, 2-[(4-{6-[(4-chloro-2-fluorobenzyl)oxy]pyridin-2-yl}piperidin-1-yl)methyl]-3-(2-methoxyethyl)-3H-imidazo[4,5-b]pyridine-5-carboxylic acid] |
| 7.37 | 84 | 8.49 | 77 |  |  |  | O=C(O)c1ccc2nc(CN3CCC(c4cccc(OCc5ccc(Cl)cc5F)n4)CC3)n(Cc3cnco3)c2c1 [Example 10A-01, 2-[(4-{6-[(4-Chloro-2-fluorobenzyl)oxy]pyridin-2-yl}piperidin-1-yl)methyl]-1-(1,3-oxazol-5-ylmethyl)-1H-benzimidazole-6-carboxylic acid] |
| 8.39 | 100 | 9.52 | 84 |  |  |  | C[C@H]1CN(c2cccc(OCc3ccc(Cl)cc3F)n2)CCN1Cc1nc2ccc(C(=O)O)nc2n1C[C@@H]1CCO1 [Example 10A-10, 2-{[(2S)-4-{6-[(4-chloro-2-fluorobenzyl)oxy]pyridin-2-yl}-2-methylpiperazin-1-yl]methyl}-3-[(2S)-oxetan-2-ylmethyl]-3H-imidazo[4,5-b]pyridine-5-carboxylic acid] |
| 5.85 |  |  |  | 83 | 46 | 66 | COCCn1c(CN2CCC(c3cccc(OCc4ccc(Cl)cc4F)n3)CC2C)nc2ccc(C(=O)O)cc21 (single isomer, unassigned) [Example 13A-04, cis 2-{[4-{6-[(4-Chloro-2-fluorobenzyl)oxy]pyridin-2-yl}-2-methylpiperidin-1-yl]methyl}-1-(2-methoxyethyl)-1H-benzimidazole-6-carboxylic acid] |
| 6.39 | 75 | 7.96 | 71 |  |  |  | O=C(O)c1ccc2nc(CN3CCC(c4cccc(OCc5ccc(Cl)cc5F)n4)CC3)n(CC3CCC3)c2c1 [Example 11A-16, 2-[(4-{6-[(4-chloro-2-fluorobenzyl)oxy]pyridin-2-yl}piperidin-1-yl)methyl]-1-(cyclobutylmethyl)-1H-benzimidazole-6-carboxylic acid] |
| 5.46 | 95 | 6.96 | 70 |  |  |  | CN1CCC[C@@H]1Cn1c(CN2CCC(c3cccc(OCc4ccc(Cl)cc4F)n3)CC2)nc2ccc(C(=O)O)cc21 [Example 11A-34, 2-[(4-{6-[(4-chloro-2-fluorobenzyl)oxy]pyridin-2-yl}piperidin-1-yl)methyl]-1-{[(2R)-1-methylpyrrolidin-2-yl]methyl}-1H-benzimidazole-6-carboxylic acid] |
| 7.23 | 85 | 8.74 | 77 |  |  |  | C[C@H]1CN(c2cccc(OCc3ccc(C#N)cc3F)n2)CCN1Cc1nc2ccc(C(=O)O)cc2n1Cc1cnco1 [Example 10A-17] |
| 6.77 | 96 | 8.16 | 78 |  |  |  | COCCn1c(CN2CCN(c3cccc(OCc4ccc(Cl)cc4F)n3)C[C@@H]2C)nc2ccc(C(=O)O)cc21 [Example 12A-10, 2-{[(2S)-4-{6-[(4-chloro-2-fluorobenzyl)oxy]pyridin-2-yl}-2-methylpiperazin-1-yl]methyl]-1-(2-methoxyethyl)-1H-benzimidazole-6-carboxylic acid] |
| 5.82 | 81 | 7.14 | 76 |  |  |  | Cc1ccn(CCn2c(CN3CCC(c4cccc(OCc5ccc(Cl)cc5F)n4)CC3)nc3ccc(C(=O)O)cc32)n1 [Example 11A-31, 2-[(4-{6-[(4-chloro-2-fluorobenzyl)oxy]pyridin-2-yl}piperidin-1-yl)methyl]-1-[2-(3-methyl-1H-pyrazol-1-yl)ethyl]-1H-benzimidazole-6-carboxylic acid] |
| 7.08 | 83 | 8.33 | 71 |  |  |  | C[C@H]1CN(c2cccc(OCc3ccc(C#N)cc3F)n2)CCN1Cc1nc2ccc(C(=O)O)cc2n1C[C@H]1CCOC1 [Example 10A-59] |
